Structures are written as SMILES.

This note sets out measurements from patent US20240246960A1 (adMare Therapeutics Society, priority 2021, published 2024).

Test [1] concerns FaDu tumour xenograft. The test can be described thus: In vivo clonogenic survival (CS-ER), FaDu tumour xenografts ± radiation. To be noted: Rag2M mice. As to the method: FaDu tumour xenograft-bearing Rag2M mice were treated with single administrations of test compounds at indicated doses±radiation as indicated, at time 0.
Mice were irradiated at 1 h post compound administration (unless otherwise indicated), with 300 KV X-rays and a 10 mA current from a Precision XRAD 300 machine (USA) with a beam-hardening filter (2 mm Al+0.25 mm Cu+0.75 mm Sn) and an adjustable site to specimen distance (SSD) at a dose of 8-10 Gy, delivered at a rate of ˜1.05 Gy/min.
Mice were terminated at times after irradiation as indicated, and tumour tissues excised. A portion of tumour approximately 300-500 mg was briefly minced using sterile scissors and placed in a pre-weighed gentleMACS C tube (Miltenyi Biotec cat #130-093-237) and weighed with combined tumour+tube mass recorded. A 5 mL aliquot of enzyme cocktail comprising of trypsin/DNase/collagenase/EDTA-Na2 in PBS (1 mg/ml trypsin+0.26 mg/ml DNase+0.21 mg/ml collagenase+2 mM EDTA-Na2) was added to the tube, which is then run on the gentleMACS Dissociator disaggregation system. Tubes were then incubated at 37° C. and continually rotated for 20 min before again running on the gentleMACS Dissociator program. Samples were then diluted with 5 ml MEM medium containing 5% FBS and filtered (Falcon cell strainer 100 μm, cat #352360). After centrifugation (1100 rpm for 6 minutes at 4° C.) supernatant was aspirated and the cells resuspended in 4 ml cold growth medium (MEM+10% FBS)+50 ul DNase (5 mg/ml DNase solution). Cell numbers were counted from the same cell solution using a hemacytometer. Appropriate dilutions (control: 10,000 cells/ml; 8Gy: 400,000 cells/ml; drug+radiation treated; 500,000 cells/ml) were made and cells then plated in triplicate: control: 100 μl and 300 μl (1000 and 3000 cells/6 cm tissue culture plate); 8Gy: 30 μl, 105 μl and 350 μl (12000, 42000 cells/6 cm plates and 140000 cells/10 cm plate); drug+8Gy: 70 μl, 300 μl, 1.2 ml (35000 and 150000 cells/6 cm plates and 600000 cells/10 cm plates—only duplicate). Plates were incubated at 37° C. (in a 5% CO2, 5% O2 and balance N2 environment) for 14 days. For a final and accurate automated live-cell counting a solution of Hoechst33342 (0.01 mg/ml)+Propidium Iodide (0.004 mg/ml) in 0.9% saline was mixed with an appropriate cell number dilution of the samples in 96 well plates (50 ul staining solution+50 ul cell suspension of 10000 cells/ml) and images are taken of the wells and cell numbers are calculated by a computer program.
After 14 days plates were removed from the incubator, rinsed with PBS and stained with cold 2 g/L Malachite green oxalate salt solution (Sigma-Aldrich, cat #M6880) for 30 minutes at room temperature. Plates were rinsed with distilled water and dried. Pictures were obtained of the plates and colonies consisting of 50 or more cells were counted using a Stuart Scientific colony counter.
All plates with colonies were analyzed except when colony numbers were so high that the edges of individual colonies could not be determined accurately. Plating efficiency (PE) of each tumour sample was calculated first: PE is a ratio of the number of colonies to the number of cells seeded (sum of all the colonies countable in all the plates of the same sample divided by the sum of cells plated in the same plates). The PE of control tumours was averaged for the calculation of surviving fraction (SF): SF is based on the number of colonies formed in drug and/or radiation treated cells relative to that of untreated control (PE of treated tumor sample divided by PE of control). All treated data points were compared separately to the average of the controls. Finally, a Clonogenic Survival Enhancement Ratio (CS-ER) was calculated: the SF of irradiated control groups were divided by the SF of treatment groups to determine treatment group-specific CS-ER values, and these were assigned scores based on defined response ranges: values >6=A, 4-6=B, <4=C.

The test system of test [2] is FaDu tumour xenograft. The test can be described thus: In vivo tumour growth delay (TGD-ER), FaDu tumour xenografts + radiation. To be noted: PO. As to the method: FaDu tumour xenograft-bearing animals were monitored for tumour growth and once average tumour size reached approximately 100-250 mm3, animals were assigned to treatment cohorts using stratified randomization. Animals were weighted and treated with doses of test compounds at 10, 30 or 100 mg/kg PO from 1, 3 or 10 mg/mL formulations at time 0.
For BID dosing regimens, at 8 h following the first injection, animals were again administered with test compound at the same dose as their previous administration. Animals were weighed and had tumours measured using calipers three times weekly until the endpoint of maximum tumour volume, 1000 mm3, was reached and animals were euthanized. Tumour volumes were calculated according to the equation L×W^2/2 with the length (mm) being the longer axis of the tumour; in the case that no tumour was palpable, tumour volumes were recorded as 0 mm^3.
Data were calculated as tumour growth normalized to day 0 measurements, with time to tumour doubling determined. Average time to tumour doubling for each group was used to determine a Tumour Growth Delay Enhancement Ratio (TGD-ER): the time to doubling for treatment groups were divided by the time to doubling for irradiation-alone groups to determine group-specific TGD-ER values, and these were assigned scores based on defined response ranges: values >2.5=A, 1-2.5=B, <1=C.

Turning to `O=C(N[C@H]1CC[C@@H](Oc2nc(N3CCOCC3)cc3ncccc23)CC1)c1ccncc1` [Compound 113, N-((1s,4s)-4-((7-morpholino-1,6-naphthyridin-5-yl)oxy)cyclohexyl)isonicotinamide], the “CS-ER Range Score” value is “C (<4=C)” in the test on FaDu tumour xenograft [1] (30 mpk + 8 Gy, 2 h) and “B (4-6=B)” with FaDu tumour xenograft [1] (30 mpk + 8 Gy, 4 h).
On to `O=C(N[C@H]1CC[C@@H](Oc2nc(N3CCOCC3)cc3ncccc23)CC1)c1ccnnc1` [Compound 121, N-((1s,4s)-4-((7-morpholino-1,6-naphthyridin-5-yl)oxy)cyclohexyl)pyridazine-4-carboxamide], for which, in the test on FaDu tumour xenograft [1] (30 mpk + 8 Gy, 4 h), the “CS-ER Range Score” value was “C (<4=C)”.
For `O=C(N[C@H]1CC[C@@H](Oc2nc(N3CCOCC3)cc3ncccc23)CC1)c1ncccn1` [Compound 123, N-((1s,4s)-4-((7-Morpholino-1,6-naphthyridin-5-yl)oxy)cyclohexyl)pyrimidine-2-carboxamide], the “TGD-ER Range Score” value is reported as “B (1-2.5=B)” with FaDu tumour xenograft [2] (10 mpk + 10 Gy); “B (1-2.5=B)” with FaDu tumour xenograft [2] (30 mpk + 10 Gy); “A (values >2.5=A)” in the test on FaDu tumour xenograft [2] (100 mpk + 10 Gy); “A (values >2.5=A)” with FaDu tumour xenograft [2] ((30 mpk + 2 Gy) Q5D); “C (<1=C)” with FaDu tumour xenograft [2] ((30 mpk) Q5D). The “CS-ER Range Score” value with FaDu tumour xenograft [1] (100 mpk + 10 Gy, 0.5 h) is “C (<4=C)”; with FaDu tumour xenograft [1] (100 mpk + 10 Gy, 4 h) it was “A (values >6=A)”; in the test on FaDu tumour xenograft [1] (100 mpk + 10 Gy, 8 h), “A (values >6=A)”; in the test on FaDu tumour xenograft [1] (100 mpk + 10 Gy, 24 h), “A (values >6=A)”.
As to `O=C(N[C@H]1CC[C@@H](Oc2nc(N3CCOCC3)cc3ncccc23)CC1)c1cc[nH]c1` [Compound 140, N-((1s,4s)-4-((7-morpholino-1,6-naphthyridin-5-yl)oxy)cyclohexyl)-1H-pyrrole-3-carboxamide], the “TGD-ER Range Score” value with FaDu tumour xenograft [2] (30 mpk BID + 10 Gy) was “C (<1=C)”. The “CS-ER Range Score” value with FaDu tumour xenograft [1] (30 mpk + 8 Gy, 4 h) is “B (4-6=B)”.
Consider `O=C(N[C@H]1CC[C@@H](Oc2nc(N3CCOCC3)cc3ncccc23)CC1)c1ncco1` [Compound 142, N-((1s,4s)-4-((7-morpholino-1,6-naphthyridin-5-yl)oxy)cyclohexyl)oxazole-2-carboxamide], for which the “CS-ER Range Score” value with FaDu tumour xenograft [1] (30 mpk + 8 Gy, 2 h) is given as “B (4-6=B)”; with FaDu tumour xenograft [1] (30 mpk + 8 Gy, 4 h), “B (4-6=B)”.
In the case of `O=C(N[C@H]1CC[C@@H](Oc2nc(N3CCOCC3)cc3ncccc23)CC1)c1c[nH]cn1` [Compound 144, N-((1s,4s)-4-((7-morpholino-1,6-naphthyridin-5-yl)oxy)cyclohexyl)-1H-imidazole-4-carboxamide], the “CS-ER Range Score” value in the test with FaDu tumour xenograft [1] (30 mpk + 8 Gy, 2 h) is “C (<4=C)”; in the test on FaDu tumour xenograft [1] (30 mpk + 8 Gy, 4 h), “B (4-6=B)”.
On to `CS(=O)(=O)Nc1cnc2cc(N3CCOCC3)nc(O[C@H]3CC[C@@H](Nc4ncccn4)CC3)c2c1` [Compound 185, N-(7-morpholino-5-(((1s,4s)-4-(pyrimidin-2-ylamino)cyclohexyl)oxy)-1,6-naphthyridin-3-yl)methanesulfonamide], for which the “TGD-ER Range Score” value in the test on FaDu tumour xenograft [2] (10 mpk BID + 5 Gy), in the test on FaDu tumour xenograft [2] (30 mpk BID + 5 Gy) and in the test on FaDu tumour xenograft [2] (100 mpk BID + 5 Gy) was “B (1-2.5=B)” each time. Further, the “CS-ER Range Score” value in the test on FaDu tumour xenograft [1] (30 mpk + 8 Gy, 4 h) is “B (4-6=B)”.
For `COc1cnc(N[C@H]2CC[C@@H](Oc3nc(N4CCOCC4)cc4ncc(NS(C)(=O)=O)cc34)CC2)nc1` [Compound 203, N-(5-(((1s,4s)-4-((5-methoxypyrimidin-2-yl)amino)cyclohexyl)oxy)-7-morpholino-1,6-naphthyridin-3-yl)methanesulfonamide], the “CS-ER Range Score” value with FaDu tumour xenograft [1] (30 mpk + 8 Gy, 2 h) is “B (4-6=B)”; with FaDu tumour xenograft [1] (30 mpk + 8 Gy, 4 h), “B (4-6=B)”.
